Laboratory results: ChEMBL document CHEMBL1201862, “PubChem BioAssay data set” (2004)
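Method: 48-hour compound exposure of cells in 96-well plates, five concentrations, linear interpolation of endpoints. At the GI50, growth is halved.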 Activity calls are given as the source filed them. No stated cut-off is given here; in the data, active = GI50 up to about 1.1 µM and inactive = higher.

Legend:
Test in all cases: NCI-60 cell line screen, 48 h
U-251 = test system: U-251
KM12 = test system: KM12
Hs-578T = test system: Hs-578T
IGROV-1 = test system: IGROV-1
SK-OV-3 = test system: SK-OV-3
MDA-MB-435 = test system: MDA-MB-435
A549 = test system: A549
PC-3 = test system: PC-3
CAKI-1 = test system: CAKI-1
CCRF-CEM = test system: CCRF-CEM
HOP-92 = test system: HOP-92
RXF 393 = test system: RXF 393
SR = test system: SR
UACC-62 = test system: UACC-62
SF-268 = test system: SF-268
SN12C = test system: SN12C
RPMI-8226 = test system: RPMI-8226
EKVX = test system: EKVX
T47D = test system: T47D
SF-539 = test system: SF-539

Row | Structure (SMILES) | GI50 (U-251) | GI50 (KM12) | GI50 (Hs-578T) | GI50 (IGROV-1) | GI50 (SK-OV-3) | GI50 (MDA-MB-435) | GI50 (A549) | GI50 (PC-3) | GI50 (CAKI-1) | GI50 (CCRF-CEM) | GI50 (HOP-92) | GI50 (RXF 393) | GI50 (SR) | GI50 (UACC-62) | GI50 (SF-268) | GI50 (SN12C) | GI50 (RPMI-8226) | GI50 (EKVX) | GI50 (T47D) | GI50 (SF-539)
1 | CC(C)C1OC(/C=C/c2ccccc2)OCC1(C)C (configuration not stated) | 24.9 µM (inactive) | 31 µM (inactive) | 22.8 µM (inactive) | 40.1 µM (inactive) | 48.3 µM (inactive) | 33.7 µM (inactive) | 29.9 µM (inactive) | 37.1 µM (inactive) | 31.8 µM (inactive) | 20.9 µM (inactive) | 17.9 µM (inactive) | 18.1 µM (inactive) | 30.1 µM (inactive) | 45.7 µM (inactive) | 33 µM (inactive) | 21.6 µM (inactive) | 17.8 µM (inactive) | 27.5 µM (inactive) | 31.4 µM (inactive) | 
2 | COC(=O)[C@@H]1CN(C(=O)CCc2ccccc2)C(=O)N1 | > 100 µM (inactive) | > 100 µM (inactive) | > 100 µM (inactive) | > 100 µM (inactive) | > 100 µM (inactive) | > 100 µM (inactive) | > 100 µM (inactive) | > 100 µM (inactive) | > 100 µM (inactive) | > 100 µM (inactive) | > 100 µM (inactive) | > 100 µM (inactive) | > 100 µM (inactive) |  | > 100 µM (inactive) | > 100 µM (inactive) | > 100 µM (inactive) | > 100 µM (inactive) | > 100 µM (inactive) | > 100 µM (inactive)
3 | O=C1c2ccccc2NC(=O)C2C1C(c1ccccc1)CC2(O)c1ccccc1 (configuration not stated) |  | 48 µM (inactive) | 34.5 µM (inactive) | 52.4 µM (inactive) | > 100 µM (inactive) | > 100 µM (inactive) | 30 µM (inactive) | 18 µM (inactive) | 78 µM (inactive) | 27.7 µM (inactive) | 9.89 µM (inactive) | 80.9 µM (inactive) | 70.3 µM (inactive) | > 100 µM (inactive) | > 100 µM (inactive) | > 100 µM (inactive) |  | > 100 µM (inactive) | 49.7 µM (inactive) | > 100 µM (inactive)
4 | N#Cc1ccc(Oc2nc3ccccc3nc2C(=O)O)cc1 | > 100 µM (inactive) | > 100 µM (inactive) | > 100 µM (inactive) | > 100 µM (inactive) | > 100 µM (inactive) | > 100 µM (inactive) | > 100 µM (inactive) | > 100 µM (inactive) | > 100 µM (inactive) | > 100 µM (inactive) | > 100 µM (inactive) | > 100 µM (inactive) | > 100 µM (inactive) | > 100 µM (inactive) | > 100 µM (inactive) |  | > 100 µM (inactive) | > 100 µM (inactive) | > 100 µM (inactive) | 
5 | NC(=S)c1cccc(C2Nc3ccccc3O2)c1 (configuration not stated) | > 100 µM (inactive) | 37.2 µM (inactive) | > 100 µM (inactive) | > 100 µM (inactive) | > 100 µM (inactive) | 43 µM (inactive) | 41.5 µM (inactive) | 51.2 µM (inactive) | > 100 µM (inactive) |  | > 100 µM (inactive) | > 100 µM (inactive) | > 100 µM (inactive) | 19.5 µM (inactive) | > 100 µM (inactive) | < 0.01 µM (active) | < 0.01 µM (active) | 0.019 µM (active) | 46.7 µM (inactive) | 61.1 µM (inactive)
6 | O=S(=O)(O)c1ccc2c(/N=N/c3cccc4ccccc34)c(O)ccc2c1 | 87.1 µM (inactive) | > 100 µM (inactive) | > 100 µM (inactive) | > 100 µM (inactive) | > 100 µM (inactive) | > 100 µM (inactive) | > 100 µM (inactive) | > 100 µM (inactive) | > 100 µM (inactive) | > 100 µM (inactive) | > 100 µM (inactive) | > 100 µM (inactive) | > 100 µM (inactive) | > 100 µM (inactive) | > 100 µM (inactive) | > 100 µM (inactive) | > 100 µM (inactive) | > 100 µM (inactive) | > 100 µM (inactive) | 
